Measured values as given in the supplement of paper PMC10307832.

Assays:
Experiment in all cases: relative viability (nuclei count vs DMSO), 5 days (fraction); higher = more cells survive
AGI-6780 + Navitoclax = compound: O=C(Nc1cccc(C(F)(F)F)c1)Nc1cc(S(=O)(=O)NC2CC2)ccc1-c1ccsc1 [AGI-6780] + CC1(C)CCC(c2ccc(Cl)cc2)=C(CN2CCN(c3ccc(C(=O)NS(=O)(=O)c4ccc(N[C@H](CCN5CCOCC5)CSc5ccccc5)c(S(=O)(=O)C(F)(F)F)c4)cc3)CC2)C1 [Navitoclax] (partner 0.5 µM)
Summary of the method: (§1)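 One day after seeding in 1536-well plates, lung cancer cell lines were dosed by pin tool. Dosing was either single-drug or a fixed anchor-drug dose plus five library-drug doses (not always all listed) in √10 steps. After 5 days, nuclei were stained in one fix-and-stain step and counted on 4× images, and relative viability is the nuclei count of treated wells over that of vehicle wells, given as the median of duplicate plates.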

AGI-6780 + Pemetrexed = compound: O=C(Nc1cccc(C(F)(F)F)c1)Nc1cc(S(=O)(=O)NC2CC2)ccc1-c1ccsc1 [AGI-6780] + Nc1nc2[nH]cc(CCc3ccc(C(=O)N[C@@H](CCC(=O)O)C(=O)O)cc3)c2c(=O)[nH]1 [Pemetrexed] (partner 0.2 µM)
Summary of the method: as §1

AGI-6780 + Vorinostat = compound: O=C(Nc1cccc(C(F)(F)F)c1)Nc1cc(S(=O)(=O)NC2CC2)ccc1-c1ccsc1 [AGI-6780] + O=C(CCCCCCC(=O)Nc1ccccc1)NO [Vorinostat] (partner 1 µM)
Summary of the method: as §1

AGI-6780 + Linsitinib = compound: O=C(Nc1cccc(C(F)(F)F)c1)Nc1cc(S(=O)(=O)NC2CC2)ccc1-c1ccsc1 [AGI-6780] + C[C@]1(O)C[C@@H](c2nc(-c3ccc4ccc(-c5ccccc5)nc4c3)c3c(N)nccn32)C1 [Linsitinib] (partner 1 µM)
Summary of the method: as §1

Row | Cell Line | relative viability (AGI-6780 + Navitoclax; first compound 0.08 µM) | relative viability (AGI-6780 + Navitoclax; first compound 0.253 µM) | relative viability (AGI-6780 + Navitoclax; first compound 0.8 µM) | relative viability (AGI-6780 + Navitoclax; first compound 8 µM) | relative viability (AGI-6780 + Pemetrexed; first compound 0.08 µM) | relative viability (AGI-6780 + Pemetrexed; first compound 0.253 µM) | relative viability (AGI-6780 + Pemetrexed; first compound 0.8 µM) | relative viability (AGI-6780 + Pemetrexed; first compound 2.53 µM) | relative viability (AGI-6780 + Pemetrexed; first compound 8 µM) | relative viability (AGI-6780 + Vorinostat; first compound 0.08 µM) | relative viability (AGI-6780 + Vorinostat; first compound 0.253 µM) | relative viability (AGI-6780 + Vorinostat; first compound 0.8 µM) | relative viability (AGI-6780 + Vorinostat; first compound 2.53 µM) | relative viability (AGI-6780 + Vorinostat; first compound 8 µM) | relative viability (AGI-6780 + Linsitinib; first compound 0.08 µM) | relative viability (AGI-6780 + Linsitinib; first compound 0.253 µM) | relative viability (AGI-6780 + Linsitinib; first compound 0.8 µM) | relative viability (AGI-6780 + Linsitinib; first compound 8 µM) | relative viability (AGI-6780 + Navitoclax; first compound 2.53 µM) | relative viability (AGI-6780 + Linsitinib; first compound 2.53 µM)
1 | NCI-H1734 | 0.889 | 0.814 | 0.778 | 0.861 | 0.479 | 0.438 | 0.429 | 0.426 | 0.42 | 0.798 | 0.842 | 0.865 | 0.728 | 0.799 | 1.01 | 0.975 | 0.728 | 0.945 | – | –
2 | NCI-H1755 | 1.04 | 1.01 | 0.977 | 0.894 | 0.496 | 0.495 | 0.475 | 0.435 | 0.402 | 0.751 | 0.813 | 0.646 | 0.605 | 0.8 | 0.987 | 1.01 | 0.999 | 0.923 | 0.961 | 0.974
3 | NCI-H1793 | 0.977 | 0.365 | 0.455 | 0.519 | 0.838 | 0.926 | 0.964 | 0.671 | 0.959 | 0.69 | 0.807 | 0.797 | 0.666 | 0.685 | 0.849 | 0.881 | 1.11 | 0.93 | 0.386 | 0.526
4 | NCI-H1915 | 0.818 | 0.781 | 0.746 | 0.738 | 0.478 | 0.491 | 0.552 | 0.538 | 0.452 | 0.563 | 0.538 | 0.516 | 0.468 | 0.482 | 1.1 | 1.04 | 1.08 | 1.08 | 0.808 | 1.06
5 | NCI-H1944 | 1.07 | 1.09 | 1.01 | 1.02 | 0.642 | 0.627 | 0.611 | – | 0.684 | 0.641 | 0.523 | 0.575 | – | 0.579 | 1.22 | 1.28 | 1.24 | 1.13 | 0.792 | 0.931
6 | NCI-H1975 | 1.15 | 1 | 1.1 | 1.03 | 0.313 | 0.275 | 0.299 | 0.288 | 0.29 | 0.711 | 0.742 | 0.66 | 0.697 | 0.694 | 1.11 | 0.986 | 0.912 | 0.969 | 1.02 | 1.07
7 | NCI-H1993 | 1.1 | 0.986 | 0.903 | 1.14 | 0.5 | 0.669 | 0.634 | – | 0.542 | 1.21 | 0.811 | 0.853 | – | 0.784 | 0.808 | 0.801 | 0.765 | 0.682 | 0.667 | 0.703
8 | NCI-H2009 | 1.2 | 1.12 | 1.19 | 1.16 | 1.14 | 1.1 | 1.01 | 1.14 | 0.957 | 0.754 | 0.712 | 0.693 | 0.707 | 0.628 | 1.18 | 1.21 | 1.12 | 1.15 | 1.16 | 1.25
9 | NCI-H2023 | 1 | 1.06 | 1.02 | 0.919 | 0.283 | 0.235 | 0.242 | 0.256 | 0.204 | 0.705 | 0.818 | 0.781 | 0.541 | 0.648 | 0.711 | 0.677 | 0.697 | 0.698 | 0.989 | 0.648
10 | NCI-H2085 | 1.15 | 1.07 | 1.1 | 1.2 | 0.935 | 0.963 | 0.911 | 1.14 | 0.906 | 0.787 | 0.832 | 0.841 | 0.865 | 0.727 | 1.01 | 0.87 | 0.781 | 1.07 | 1.08 | 0.921
11 | NCI-H2087 | 1.08 | 0.986 | 0.98 | 0.97 | 0.702 | 0.637 | 0.696 | 0.636 | 0.754 | 0.546 | 0.646 | 0.719 | 0.744 | 0.868 | 1.06 | 0.891 | 0.85 | 0.883 | 0.982 | 0.984
12 | NCI-H2126 | 0.926 | 0.898 | 0.839 | 0.84 | 0.743 | 0.649 | 0.616 | 0.676 | 0.768 | 0.855 | 0.884 | 0.79 | 0.585 | 0.758 | 0.761 | 0.802 | 0.709 | 0.712 | 0.738 | 0.585
13 | NCI-H2228 | 0.753 | 1.04 | 0.675 | 1.08 | 0.338 | 0.343 | 0.384 | 0.34 | 0.391 | 0.641 | 0.597 | 0.592 | 0.502 | 0.537 | 0.8 | 1.07 | 0.604 | 0.629 | 0.856 | 0.754
14 | NCI-H2347 | 0.7 | 0.839 | 0.552 | 0.841 | 0.44 | 0.439 | 0.428 | 0.448 | 0.454 | 0.575 | 0.587 | 0.637 | 0.553 | 0.784 | 1.04 | 0.849 | 0.716 | 1.02 | 0.605 | 0.998
15 | NCI-H2405 | 0.8 | 0.9 | 0.725 | 0.836 | – | 1.05 | 0.902 | 0.975 | 1.05 | – | 0.975 | 0.943 | 0.937 | 0.954 | 0.931 | 0.933 | 0.687 | 0.845 | – | –
16 | NCI-H3122 | 1.03 | 1.03 | 1.02 | 0.977 | 0.209 | 0.199 | 0.191 | 0.195 | 0.185 | 1.03 | 0.805 | 0.843 | 0.832 | 1.02 | 1.03 | 0.982 | 1.01 | 1.04 | 1.07 | 1.08
